Measurements as given in article PMC7561186, “Rational design of balanced dual-targeting antibiotics with limited resistance” (PLoS Biology, 2020).

Tests used:
Assay type in all cases: cell-based
[1] = tested on: Enterococcus faecium; assay: MIC, broth microdilution (CLSI)
Description: (§1) MICs were determined using a standard serial broth microdilution technique according to the CLSI guidelines. Briefly, bacterial strains were inoculated onto MHBII agar plates and were grown overnight at 37 °C. Next, 3 individual colonies from each strain were inoculated into 1 mL MHBII medium and propagated at 37 °C, 250 rpm overnight. In the cases of Enterococcus and Streptococcus sp., cells were plated to BHI agar plates, and BHI broth was used to determine MICs. […] Following dilutions, each well was seeded with 5×10^4 bacterial cells. All measurements were performed in 3 parallel replicates and to avoid possible edge effects in microwell plates, side rows (A and H) were filled with sterile medium. Following inoculations, plates were covered with lids and wrapped in polyethylene plastic bags to minimize evaporation but allow for O2 transfer. Plates were incubated at 37 °C under continuous shaking at 150 rpm for 18 hours. After incubation, OD600 of each well was measured using a BioTek Synergy 2 microplate reader.

[2] = tested on: Listeria monocytogenes; assay: MIC, broth microdilution (CLSI); conditions: Listeria monocytogenes ATCC 19111
Description: as §1

[3] = tested on: multidrug-resistant Staphylococcus, Enterococcus, and Streptococcus isolates; assay: MIC against multidrug-resistant gram-positive isolates (summary); conditions: read-out: MIC values against all studied multidrug-resistant Staphylococcus, Enterococcus, and Streptococcus isolates
Description: as §1

[4] = tested on: Staphylococcus epidermidis; assay: MIC, broth microdilution (CLSI); conditions: Staphylococcus epidermidis ATCC 51625, MRSE
Description: as §1

[5] = Enterococcus faecium ATCC 19434
[6] = Enterococcus faecium ATCC 700221, VRE (VanA+)
[7] = Enterococcus faecium CCUG 56858, VRE (VanB+)

SMILES	MIC [1, 5] [µg/mL]	MIC [1, 6] [µg/mL]	MIC [1, 7] [µg/mL]	MIC ([2]; ATCC19111) [µg/mL]	MIC [2] [µg/mL]	MIC [3] [µg/mL]	MIC ([1]; Enterococcus faecium BAA-2320, VRE (VanA+)) [µg/mL]	MIC [4] [µg/mL]
Cc1[nH]c(C(=O)Nc2nc3c(OCc4ccccc4)cc(C(=O)O)cc3s2)c(Cl)c1Cl [ULD2]	0.5	0.0625	0.25	0.125	0.125	< 2	–	–
Cc1[nH]c(C(=O)Nc2nc3ccc(C(=O)O)cc3s2)c(Cl)c1Cl [ULD1]	2	0.0625	2	0.125	0.125	< 2	0.25	0.0625
